Laboratory results published in patent US9422267B2, “Fused pyrimidine compounds and use thereof” (Medivation Technologies, Inc., priority 2012, dated 2016).
One block for each molecule: values may come before it.

Tests used:
EPHA3 = EPHA3 (Homo sapiens, UniProt P29320); assay: Caliper kinase profiling: EPHA3; format: biochemical; conditions: EPHA3, 1 μM; read-out: Average % Inh @ 1 μM
FLT4 = FLT4 (Homo sapiens, UniProt P35916); assay: Caliper kinase profiling: FLT4; format: biochemical; conditions: FLT4, 1 μM; read-out: Average % Inh @ 1 μM
MST1R = MST1R (Homo sapiens, UniProt Q04912); assay: Caliper kinase profiling: MST1R; format: biochemical; conditions: read-out: Average % Inh @ 1 μM
BTK = BTK (Homo sapiens, UniProt Q06187); assay: Caliper kinase profiling: BTK; format: biochemical; conditions: read-out: Average % Inh @ 1 μM
ABL1(G250E) = target: T1, ABL1(G250E) (Homo sapiens, UniProt P00519, G250E); assay: Caliper kinase profiling: ABL1(G250E); format: biochemical; conditions: read-out: Average % Inh @ 1 μM
T1 construct: purchased Caliper LifeSciences (ProfilerPro Kinase Selectivity Assay Kits)

LTK = LTK (Homo sapiens, UniProt P29376); assay: Caliper kinase profiling: LTK; format: biochemical; conditions: read-out: Average % Inh @ 1 μM
MET(M1250T) = MET(M1250T) (Homo sapiens, UniProt P08581, M1250T); assay: Caliper kinase profiling: MET(M1250T); format: biochemical
BLK = target: T2, BLK (Homo sapiens, UniProt P51451); assay: Caliper kinase profiling: BLK; format: biochemical
T2 construct: purchased Caliper LifeSciences (ProfilerPro Kinase Selectivity Assay Kits)

NuaK1 = target: T3, NuaK1 (Homo sapiens, UniProt O60285); assay: Caliper kinase profiling: NuaK1; format: biochemical
T3 sequence (O60285 1-661): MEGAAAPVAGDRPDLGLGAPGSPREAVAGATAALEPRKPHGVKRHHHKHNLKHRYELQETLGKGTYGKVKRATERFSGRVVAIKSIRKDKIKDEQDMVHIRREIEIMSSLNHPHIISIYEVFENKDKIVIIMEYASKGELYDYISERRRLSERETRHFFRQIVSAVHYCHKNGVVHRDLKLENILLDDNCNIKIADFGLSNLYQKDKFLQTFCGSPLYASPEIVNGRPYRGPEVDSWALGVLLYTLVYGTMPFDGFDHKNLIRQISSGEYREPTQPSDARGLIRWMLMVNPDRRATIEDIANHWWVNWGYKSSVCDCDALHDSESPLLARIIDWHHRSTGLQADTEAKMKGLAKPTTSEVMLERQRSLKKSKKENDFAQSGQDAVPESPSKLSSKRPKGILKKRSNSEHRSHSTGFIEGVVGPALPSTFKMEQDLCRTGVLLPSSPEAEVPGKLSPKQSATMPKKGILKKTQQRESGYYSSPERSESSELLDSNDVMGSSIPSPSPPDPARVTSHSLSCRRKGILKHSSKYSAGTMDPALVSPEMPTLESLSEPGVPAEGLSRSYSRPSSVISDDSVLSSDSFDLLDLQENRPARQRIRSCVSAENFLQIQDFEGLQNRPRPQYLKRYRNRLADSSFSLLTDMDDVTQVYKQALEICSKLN

DDR2 = DDR2 (Homo sapiens, UniProt Q16832); assay: Caliper kinase profiling: DDR2; format: biochemical; conditions: DDR2, 1 μM; read-out: Average % Inh @ 1 μM
DCAMKL2 = DCAMKL2 (Homo sapiens, UniProt Q8N568); assay: Caliper kinase profiling: DCAMKL2; format: biochemical; conditions: DCAMKL2, 1 μM; read-out: Average % Inh @ 1 μM
LYNB = LYNB (Homo sapiens, UniProt P07948); assay: Caliper kinase profiling: LYNB; format: biochemical
MST1 = target: T4, MST1 (Homo sapiens, UniProt Q13043); assay: Caliper kinase profiling: MST1; format: biochemical
T4 sequence (Q13043 1-487): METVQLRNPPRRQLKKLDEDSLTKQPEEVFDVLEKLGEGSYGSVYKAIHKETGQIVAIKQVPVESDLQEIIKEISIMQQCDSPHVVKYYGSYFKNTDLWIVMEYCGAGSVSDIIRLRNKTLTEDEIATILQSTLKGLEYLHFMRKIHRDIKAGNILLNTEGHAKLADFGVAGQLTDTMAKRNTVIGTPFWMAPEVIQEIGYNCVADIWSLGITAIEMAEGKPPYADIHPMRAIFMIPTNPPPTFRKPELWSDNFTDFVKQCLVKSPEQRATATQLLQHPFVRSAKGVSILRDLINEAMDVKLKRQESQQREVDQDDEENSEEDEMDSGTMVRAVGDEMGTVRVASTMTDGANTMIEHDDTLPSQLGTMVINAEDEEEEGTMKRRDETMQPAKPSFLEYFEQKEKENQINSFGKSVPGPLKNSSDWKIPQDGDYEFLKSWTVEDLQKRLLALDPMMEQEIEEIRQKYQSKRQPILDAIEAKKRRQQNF

FES = FES (Homo sapiens, UniProt P07332); assay: Caliper kinase profiling: FES; format: biochemical; conditions: read-out: Average % Inh @ 1 μM
[1] = system: panel of 72 non-kinase targets (Table B14), incl. CYP450; assay: Extended panel screen against non-kinase targets (LeadProfilingScreen and CYP450 assays); format: binding; conditions: 72 non-kinase targets, read-out: percent inhibition of all non-kinase targets
Experimental: (§1) Compound no. The experiments were performed by Ricerca Biosciences (Painesville, Ohio) using the LeadProfilingScreen and CYP450 assays. Compound no. 8b was screened at a concentration of 1 μM. No significant hits were identified.

[2] = system: over 50 of the panel of 72 non-kinase targets (Table B14); assay: as above; format: binding; conditions: read-out: percent inhibition for over 50 of the non-kinase targets tested
Experimental: as §1

PANC-1 = assay: Cell viability: pancreatic cancer cell line PANC-1; format: cell-based; conditions: Homo sapiens; PANC-1 pancreatic cancer cell line
Experimental: This assay quantitates the ATP present in order to determine the number of viable cells in culture. Briefly, the compounds were incubated with the cells for 72 h, followed by cell lysis. The resulting luminescent signal is proportional to the amount of ATP present and, therefore, directly proportional to the number of cells present in culture.
Analogous studies utilizing pancreatic cancer cell lines such as ASPC-1 and PANC-1 can be performed with compounds of the invention.

[3] = 10 nM, read-out: Average % Inh @ 10 nM
[4] = 100 nM, read-out: Average % Inh @ 100 nM
[5] = 1 μM, read-out: Average % Inh @ 1 μM

Chain of LYNB (P07948 1-491 isoform P07948-2): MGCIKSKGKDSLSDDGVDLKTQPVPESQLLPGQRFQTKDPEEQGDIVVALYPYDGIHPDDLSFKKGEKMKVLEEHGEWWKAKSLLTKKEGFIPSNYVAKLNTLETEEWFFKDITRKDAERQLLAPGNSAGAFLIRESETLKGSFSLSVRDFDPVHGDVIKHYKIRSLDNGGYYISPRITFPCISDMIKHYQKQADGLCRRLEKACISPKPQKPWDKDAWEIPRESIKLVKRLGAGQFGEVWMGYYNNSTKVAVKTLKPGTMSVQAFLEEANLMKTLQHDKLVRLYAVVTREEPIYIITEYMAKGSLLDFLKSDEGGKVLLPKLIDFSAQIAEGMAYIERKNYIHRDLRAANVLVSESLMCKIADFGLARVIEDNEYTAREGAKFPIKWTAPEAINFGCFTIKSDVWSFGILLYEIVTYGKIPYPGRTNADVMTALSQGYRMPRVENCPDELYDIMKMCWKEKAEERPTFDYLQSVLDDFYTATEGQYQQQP
Chain of MET(M1250T) (P08581 25-1390 M1250T): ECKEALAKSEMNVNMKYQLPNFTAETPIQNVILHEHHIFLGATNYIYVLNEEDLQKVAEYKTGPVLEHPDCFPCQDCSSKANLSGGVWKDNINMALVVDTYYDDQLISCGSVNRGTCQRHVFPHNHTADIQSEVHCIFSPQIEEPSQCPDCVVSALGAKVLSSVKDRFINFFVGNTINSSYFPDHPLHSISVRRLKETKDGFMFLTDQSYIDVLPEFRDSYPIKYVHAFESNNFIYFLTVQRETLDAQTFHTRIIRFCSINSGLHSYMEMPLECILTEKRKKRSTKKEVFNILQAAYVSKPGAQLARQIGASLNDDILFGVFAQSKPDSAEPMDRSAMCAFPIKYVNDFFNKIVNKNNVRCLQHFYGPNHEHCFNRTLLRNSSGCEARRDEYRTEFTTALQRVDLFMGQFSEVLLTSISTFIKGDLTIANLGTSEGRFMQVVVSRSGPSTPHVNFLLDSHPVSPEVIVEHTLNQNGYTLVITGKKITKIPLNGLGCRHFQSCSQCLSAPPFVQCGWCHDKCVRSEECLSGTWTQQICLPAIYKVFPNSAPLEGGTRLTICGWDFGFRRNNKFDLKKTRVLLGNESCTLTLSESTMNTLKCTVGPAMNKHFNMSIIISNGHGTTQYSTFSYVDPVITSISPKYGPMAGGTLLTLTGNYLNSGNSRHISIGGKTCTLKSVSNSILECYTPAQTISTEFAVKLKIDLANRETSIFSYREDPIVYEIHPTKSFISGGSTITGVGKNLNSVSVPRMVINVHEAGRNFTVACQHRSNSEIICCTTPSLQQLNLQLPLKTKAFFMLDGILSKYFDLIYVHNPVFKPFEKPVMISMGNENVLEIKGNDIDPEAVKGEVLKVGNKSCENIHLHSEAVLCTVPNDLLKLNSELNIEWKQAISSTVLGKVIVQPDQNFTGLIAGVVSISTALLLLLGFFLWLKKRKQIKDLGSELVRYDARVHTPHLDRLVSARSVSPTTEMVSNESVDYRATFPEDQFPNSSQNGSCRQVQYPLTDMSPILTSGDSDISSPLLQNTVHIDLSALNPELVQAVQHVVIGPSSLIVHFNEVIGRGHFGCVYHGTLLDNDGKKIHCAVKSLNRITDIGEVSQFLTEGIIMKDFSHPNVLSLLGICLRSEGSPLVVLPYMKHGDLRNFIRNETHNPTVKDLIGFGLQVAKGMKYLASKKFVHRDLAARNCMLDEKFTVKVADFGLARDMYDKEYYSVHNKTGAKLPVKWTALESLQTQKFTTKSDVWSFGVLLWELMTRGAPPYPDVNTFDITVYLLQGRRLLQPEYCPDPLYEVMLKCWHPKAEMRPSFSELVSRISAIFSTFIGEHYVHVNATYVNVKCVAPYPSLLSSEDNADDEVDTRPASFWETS
T2 sequence (P51451 whole entry): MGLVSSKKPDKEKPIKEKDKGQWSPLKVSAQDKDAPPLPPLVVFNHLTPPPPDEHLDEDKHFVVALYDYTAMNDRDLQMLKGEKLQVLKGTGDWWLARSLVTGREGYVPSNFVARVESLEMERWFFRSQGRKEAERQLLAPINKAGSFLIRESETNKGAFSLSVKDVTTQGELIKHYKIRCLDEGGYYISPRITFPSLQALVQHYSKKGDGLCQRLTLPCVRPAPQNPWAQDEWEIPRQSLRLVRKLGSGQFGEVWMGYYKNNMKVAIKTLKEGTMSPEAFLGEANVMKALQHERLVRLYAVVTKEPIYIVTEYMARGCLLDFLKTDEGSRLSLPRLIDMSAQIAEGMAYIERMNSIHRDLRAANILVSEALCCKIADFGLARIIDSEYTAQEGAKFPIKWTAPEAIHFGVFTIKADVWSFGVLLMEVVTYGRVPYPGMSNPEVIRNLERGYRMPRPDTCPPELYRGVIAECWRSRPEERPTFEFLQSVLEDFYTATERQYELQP
Chain of FES (P07332 whole entry): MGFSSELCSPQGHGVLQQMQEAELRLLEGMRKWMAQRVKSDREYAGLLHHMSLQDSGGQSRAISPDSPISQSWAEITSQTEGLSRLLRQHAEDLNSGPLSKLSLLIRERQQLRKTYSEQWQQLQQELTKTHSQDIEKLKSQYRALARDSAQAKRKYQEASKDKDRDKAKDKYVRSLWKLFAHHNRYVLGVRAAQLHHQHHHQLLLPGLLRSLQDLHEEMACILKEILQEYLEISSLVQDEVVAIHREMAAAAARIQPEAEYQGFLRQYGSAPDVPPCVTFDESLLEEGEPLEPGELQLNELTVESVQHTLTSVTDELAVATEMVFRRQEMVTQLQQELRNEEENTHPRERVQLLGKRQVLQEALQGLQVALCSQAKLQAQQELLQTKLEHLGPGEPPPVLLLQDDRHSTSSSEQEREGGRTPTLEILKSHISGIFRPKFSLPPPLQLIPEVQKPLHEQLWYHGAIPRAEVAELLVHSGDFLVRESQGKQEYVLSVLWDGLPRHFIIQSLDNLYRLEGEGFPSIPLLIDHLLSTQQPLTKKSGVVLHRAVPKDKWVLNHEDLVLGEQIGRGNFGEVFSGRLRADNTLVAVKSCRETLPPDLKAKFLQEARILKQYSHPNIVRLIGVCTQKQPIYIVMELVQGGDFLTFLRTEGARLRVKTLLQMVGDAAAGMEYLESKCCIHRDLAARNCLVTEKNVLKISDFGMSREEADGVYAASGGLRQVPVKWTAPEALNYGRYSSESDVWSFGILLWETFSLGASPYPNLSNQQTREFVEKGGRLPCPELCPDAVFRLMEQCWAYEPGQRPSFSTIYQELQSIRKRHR
Chain of LTK (P29376 17-864): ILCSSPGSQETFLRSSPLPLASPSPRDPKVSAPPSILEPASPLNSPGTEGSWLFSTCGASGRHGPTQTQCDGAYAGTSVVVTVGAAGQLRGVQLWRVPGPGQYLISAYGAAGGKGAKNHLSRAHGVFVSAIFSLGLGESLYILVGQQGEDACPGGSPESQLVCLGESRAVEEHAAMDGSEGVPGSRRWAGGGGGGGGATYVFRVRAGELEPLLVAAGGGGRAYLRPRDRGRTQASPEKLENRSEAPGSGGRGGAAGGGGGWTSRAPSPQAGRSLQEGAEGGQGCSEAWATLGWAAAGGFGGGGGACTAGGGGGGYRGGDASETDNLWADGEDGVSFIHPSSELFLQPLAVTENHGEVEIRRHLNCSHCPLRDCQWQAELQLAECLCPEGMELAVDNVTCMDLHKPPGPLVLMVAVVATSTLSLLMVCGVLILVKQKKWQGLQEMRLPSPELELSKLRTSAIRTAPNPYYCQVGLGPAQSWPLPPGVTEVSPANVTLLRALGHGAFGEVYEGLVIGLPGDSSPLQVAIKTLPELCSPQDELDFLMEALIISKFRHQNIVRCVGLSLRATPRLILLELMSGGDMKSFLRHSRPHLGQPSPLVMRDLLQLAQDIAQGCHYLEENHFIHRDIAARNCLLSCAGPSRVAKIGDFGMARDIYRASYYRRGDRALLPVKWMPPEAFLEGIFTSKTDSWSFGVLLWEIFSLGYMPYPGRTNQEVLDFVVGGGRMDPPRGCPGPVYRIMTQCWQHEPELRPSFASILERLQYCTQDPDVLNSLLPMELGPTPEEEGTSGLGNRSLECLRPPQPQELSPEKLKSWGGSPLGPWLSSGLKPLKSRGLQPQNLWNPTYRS
Chain of BTK (Q06187 whole entry): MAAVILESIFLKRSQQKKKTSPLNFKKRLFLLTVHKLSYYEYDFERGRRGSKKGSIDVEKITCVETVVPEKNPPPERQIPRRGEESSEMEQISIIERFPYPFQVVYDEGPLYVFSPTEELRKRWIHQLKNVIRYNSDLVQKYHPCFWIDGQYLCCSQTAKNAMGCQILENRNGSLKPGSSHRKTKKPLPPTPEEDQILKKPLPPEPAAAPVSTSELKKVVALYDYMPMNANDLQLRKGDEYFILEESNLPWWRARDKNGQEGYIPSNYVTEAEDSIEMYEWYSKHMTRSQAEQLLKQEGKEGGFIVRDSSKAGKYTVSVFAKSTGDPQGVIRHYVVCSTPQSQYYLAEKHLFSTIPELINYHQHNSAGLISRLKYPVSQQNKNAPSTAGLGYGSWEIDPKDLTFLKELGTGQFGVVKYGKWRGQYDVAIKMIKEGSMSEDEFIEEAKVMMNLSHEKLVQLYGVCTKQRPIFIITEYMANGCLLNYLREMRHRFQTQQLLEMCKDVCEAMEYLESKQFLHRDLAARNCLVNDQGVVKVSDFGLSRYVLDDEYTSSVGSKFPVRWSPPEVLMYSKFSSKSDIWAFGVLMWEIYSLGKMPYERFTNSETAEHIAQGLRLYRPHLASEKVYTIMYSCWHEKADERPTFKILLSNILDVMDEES

inhibition at 1 µM (EPHA3): 40 to 59%
inhibition at 1 µM (FLT4): 40 to 59%
inhibition at 1 µM (MST1R): > 60%
inhibition at 1 µM (BTK): 40 to 59%
inhibition at 1 µM (ABL1(G250E)): > 60%
inhibition at 1 µM (LTK): > 60%
inhibition at 0.01 µM (MET(M1250T); MET M1250T, 10 nM, read-out: Average % Inh @ 10 nM): < 39%
inhibition at 0.1 µM (MET(M1250T); MET M1250T, 100 nM, read-out: Average % Inh @ 100 nM): < 39%
inhibition at 1 µM (MET(M1250T); MET(M1250T), 1 μM, read-out: Average % Inh @ 1 μM): > 60%
inhibition at 0.01 µM (BLK; [3]): < 39%
inhibition at 0.1 µM (BLK; [4]): < 39%
inhibition at 1 µM (BLK; [5]): > 60%
inhibition at 0.01 µM (NuaK1; NuaK1, 10 nM, read-out: Average % Inh @ 10 nM): < 39%
inhibition at 0.1 µM (NuaK1; NuaK1, 100 nM, read-out: Average % Inh @ 100 nM): 40 to 59%
inhibition at 1 µM (NuaK1; NuaK1, 1 μM, read-out: Average % Inh @ 1 μM): > 60%
inhibition at 1 µM (DDR2): > 60%
inhibition at 1 µM (DCAMKL2): > 60%
inhibition at 0.01 µM (LYNB; [3]): < 39%
inhibition at 0.1 µM (LYNB; [4]): 40 to 59%
inhibition at 1 µM (LYNB; [5]): > 60%
inhibition at 0.01 µM (MST1; MST1, 10 nM, read-out: Average % Inh @ 10 nM): < 39%
inhibition at 0.1 µM (MST1; MST1, 100 nM, read-out: Average % Inh @ 100 nM): 40 to 59%
inhibition at 1 µM (MST1; MST1, 1 μM, read-out: Average % Inh @ 1 μM): > 60%
inhibition at 1 µM (FES): 40 to 59%
SMILES: O=C(Nc1ccc(F)nc1)C1CCCN1c1nc2c(c(Nc3cc(C4CC4)[nH]n3)n1)CCC2 (single isomer, unassigned) [Compound 2b, 1-(4-(5-cyclopropyl-1H-pyrazol-3-ylamino)-6,7-dihydro-5H-cyclopenta[d]pyrimidin-2-yl)-N-(6-fluoropyridin-3-yl)pyrrolidine-2-carboxamide]

inhibition at 1 µM [1]: < 30%
inhibition at 1 µM [2]: < 10%
IC50 (PANC-1): 3.66 µM
SMILES: CC(C)c1cc(Nc2nc(N3CCCC3C(=O)Nc3ccc(F)nc3)nc3c2CCC3)n[nH]1 (single isomer, unassigned) [Compound 8b]
